Measured values from US8372886B2, “Treatment of renal disorders, diabetic nephropathy and dyslipidemias” (Kiacta Sarl, priority 2005, dated 2013).

Test system: Zucker Diabetic Fatty rat (ZDF)
Assay: In vivo preventive study of renal function in the Zucker Diabetic Fatty rat model of diabetic nephropathy
From the text: The compound 1,3 Propanedisulfonic Acid Disodium Salt (PDS) was selected for a preventive study of renal function in the Zucker rat (ZDF) mode.
A leading study model for DN is the inbred Zucker Diabetic Fatty rat (ZDF). Given a diabetogenic diet, the ZDF rat will closely mimic human adult onset diabetes (Type 2) and related complications including glomerulosclerosis and renal damage earlier than when fed a normal diet (i.e. 14-18 weeks of age). In addition, obesity, mild hypertension, hypertriglyceridemia, hypercholesterolemia, fasting hyperglycemia, impaired glucose tolerance and hyperinsulinemia, are all major phenotypes featured in the ZDF rat.
This pre-clinical investigation evaluates the role and efficacy of 1,3 Propanedisulfonic Acid Disodium Salt (PDS) (Eprodisate Disodium) as a preventive treatment for DN and related pathophysiology in the ZDF rat model. The primary measured outcome is the attenuation/reversal of creatinine clearance deterioration and of proteinuria. The secondary measured outcome is the impact on the metabolic status in this model.
Thirty-two, 6 week-old male ZDF rats (Charles River, St. Constant, Canada) were randomized in 2 groups, Treated (PDS; in 1% sucrose drinking solution) and Control (1% sucrose drinking solution), and studied for a period of 8 weeks. […] All rats were fed a high sucrose/high fat diabetogenic diet (Harlan™ TD95217). Body weight, food and drinking solution consumption were measured on a daily basis. Twelve rats from each group were individually housed in metabolic cages for a period of 24 hours once a week. During week 2, 3, 4 and 5, rats placed in metabolic cages received drinking solution but were placed in fasting condition, whereas during weeks 1, […], 6, 7, and 8, rats were given ad libitum access to food and drinking solution. At the end of each metabolic cage session, urine output was measured, and blood and urine samples were collected in order to quantify serum and/or urine levels of PDS, creatinine, protein, uric acid, triglycerides, glucose, and electrolytes. These variables were used to calculate creatinine clearance (CCr) and proteinuria, and to evaluate general metabolic and renal health status.
Results for each time point are represented as mean±SE. Trend statistics are calculated by repeated measures ANOVA, with p<0.02 considered statistically significant.

[1] = preliminary evaluation, rats sacrificed at about 9 weeks of treatment, not shown

## O=S(=O)([O-])CCCS(=O)(=O)[O-].[Na+].[Na+] [PDS, 1,3 Propanedisulfonic Acid Disodium Salt]
ZDF rats, summary statement of the study
  uric acid serum levels: reduction of uric acid serum levels
Male ZDF rats, PDS in 1% sucrose drinking solution, adjusted higher dose, satient condition
  tolerability: well tolerated
Male ZDF rats, satient condition, after 8 weeks of treatment, p=0.0067, FIGS. 3A and 3B
  serum triglyceride levels versus Control animals: reduced serum triglyceride levels
Male ZDF rats, satient condition, after 8 weeks of treatment, p=0.012, FIGS. 2A and 2B
  degree of decline of creatinine clearance normalized over body weight (CCr/BW) versus Control animals: significantly lowered the degree of decline
Male ZDF rats, satient condition, over 8 weeks, FIG. 4A
  uric acid clearance, effect of treatment over the study: trend in the positive effect
Male ZDF rats, satient condition, week 8, FIG. 4B
  uric acid clearance compared to the control group at week 8: significant difference compared to the control group
[1]
  kidney mass versus control rats: greater kidney mass than control rats
  mass of the heart ventricles versus control rats: slightly lower ventricular mass
